Experimental data: US20240408082A1, “METHODS FOR TREATING CANCERS AND TUMORS” (BEYONDSPRING PHARMACEUTICALS, INC., priority 2021, published 2024)

Test system: melanoma models
Assay: 3D clonogenic assay, Example 1, melanoma models
Assay type: cell-based
Details: n=19 models
Experimental: In the present study, plinabulin was characterized for its ability to inhibit anchorage independent growth and ex vivo colony formation of tumor cells in semi-solid medium. The compound was investigated in 87 out of 93 originally planned tumor xenografts representing all major cancer types using a 3D clonogenic assay in a 96-well format with colony count based on image analysis as read-out. By using this assay, the investigational compound was assessed for the ability to inhibit anchorage independent growth and ex vivo colony formation of tumor cells in semi-solid medium.
A master stock solution of plinabulin was prepared by dissolving the compound in DMSO at a concentration of 9.9 mM. Working stock solutions were prepared by diluting the master stock solution with DMSO to a concentration of 0.99 mM (330-fold the highest test concentration). Small aliquots of the master and working stock were stored at −20° C. […]
Plinabulin was investigated in 87 PDX models representing a number of cancer types. […] The percentage of viable cells was determined in a Neubauer-hemocytometer using trypan blue exclusion. […]
The clonogenic assay was carried out in a 96 well plate format using ultra low attachment plates. […] Cultures were incubated at 37° C. and 7.5% CO2 in a humidified atmosphere 13 days in total and monitored closely for colony growth using an inverted microscope. […]

Compound: CC(C)(C)c1[nH]cnc1/C=c1\[nH]c(=O)/c(=C/c2ccccc2)[nH]c1=O [plinabulin, (3Z,6Z)-3-Benzylidene-6-{[5-(2-methyl-2-propanyl)-1H-imidazol-4-yl]methylene}-2,5-piperazinedione]
- geometric mean absolute IC70: 1105 nM
